Reference: patent US20080188542A1, “NOVEL INDOLE POLYMORPHS” (Wyeth, priority 2007, published 2008)
Values after ≈ are worked out from the molar mass of the structure shown.

Experiment: Solubility of polymorph A at room temperature (measurements taken at equilibrium)
Assay type: physicochemical
Settings: for solubility: thermodynamic from solid
Protocol: The polymorph A of [1-(4-tert-Butylbenzyl)-5-(3-methylphenyl)-1H-indol-3-yl](oxo)acetic acid of this invention can also be characterized by its solubility rate which is shown in FIG. 5. The solubility rate intrinsic dissolution was conducted in pH 7.5 phosphate buffer medium using USP apparatus 2 (paddle) at 50 rpm. The dissolution rate may be influenced by disk rotation speed and other conditions. The solubility of polymorph A of [1-(4-tert-Butylbenzyl)-5-(3- methylphenyl)-1H-indol-3-yl](oxo)acetic acid has been determined in a number of solvents and the results are listed in Table 5. The solubilities listed in Table 5 are based on measurements taken at equilibrium.

Cc1cccc(-c2ccc3c(c2)c(C(=O)C(=O)O)cn3Cc2ccc(C(C)(C)C)cc2)c1 [Polymorph A, [1-(4-tert-Butylbenzyl)-5-(3-methylphenyl)1H-indol-3-yl](oxo)acetic acid]
solubility (2% polysorbate 80/0.5% methylcellulose, aqueous with cosolvent or surfactant or cyclodextrin, 2% Polysorbate80/0.5% Methylcellulose): 1.09 mg/mL (≈ 2.56 mM)
Solubility of Polymorph A (Capryol 90): 73.8 mg/g
Solubility of Polymorph A (Cremophore EL): 290 mg/g
Solubility of Polymorph A (Labrasol): >160 mg/g
Solubility of Polymorph A (PEG 200): >100 mg/g
Solubility of Polymorph A (PEG 400): >100 mg/g
Solubility of Polymorph A (Phosal 53 MCT): 311 mg/g
Solubility of Polymorph A (Polysorbate 80): >200 mg/g
solubility (organic solvent or mixture, Acetone): 277 mg/mL (≈ 651 mM)
solubility (organic solvent or mixture, DMSO): > 500 mg/mL
solubility (organic solvent or mixture, Ethanol): 12.2 mg/mL (≈ 28.8 mM)
solubility (organic solvent or mixture, Propylene Carbonate): 103 mg/mL (≈ 243 mM)
solubility (organic solvent or mixture, Propylene Glycol): 7.1 mg/mL (≈ 16.7 mM)
solubility (Deionized Water): 0.024 mg/mL (≈ 0.0564 mM)
